{
  "source": "ChEMBL document CHEMBL1136240",
  "about": "“Synthesis and anthelmintic activity of cyclohexadepsipeptides with (S,S,S,R,S,R)-configuration” (Bioorg Med Chem Lett, 2003)",
  "key": {"Ovis aries [1]": {"system": "Ovis aries", "test": "In vivo antihelminthic activity against Haemonchus contortus in sheep at a dose of 0.50 mg kg-1", "type": "functional", "details": "dose 0.5 mg kg-1"}, "[2]": {"test": "LogP (Octanol-water partition coefficient) was measured at pH 2.3", "type": "physicochemical"}, "Ovis aries [3]": {"system": "Ovis aries", "test": "In vivo antihelminthic activity against Haemonchus contortus in sheep at a dose of 0.250 mg kg-1", "type": "functional", "details": "dose 0.25 mg kg-1"}, "Ovis aries [4]": {"system": "Ovis aries", "test": "In vivo antihelminthic activity against Haemonchus contortus in sheep at a dose of 0.05 mg kg-1", "type": "functional"}, "Ovis aries [5]": {"system": "Ovis aries", "test": "In vivo antihelminthic activity against Haemonchus contortus in sheep at a dose of 0.10 mg kg-1", "type": "functional", "details": "dose 0.1 mg kg-1"}},
  "data": [
    {"smiles": "CCC(C)[C@H]1C(=O)O[C@H](C(C)C)C(=O)N(C)[C@@H](C(C)CC)C(=O)O[C@H](C(C)C)C(=O)N(C)[C@@H](C(C)CC)C(=O)O[C@H](C(C)C)C(=O)N1C", "note": "(stereo partly specified)", "values": [
      {"measurement": "Egg reduction", "setting": "Ovis aries [1]", "value": ">=95%"}
    ]},
    {"smiles": "CCC(C)[C@H]1C(=O)O[C@H](C)C(=O)N(C)[C@@H](C(C)CC)C(=O)O[C@H](C)C(=O)N(C)[C@@H](C(C)CC)C(=O)OCC(=O)N1C", "note": "(stereo partly specified)", "values": [
      {"measurement": "logD", "setting": "[2]", "value": 4},
      {"measurement": "Egg reduction", "setting": "Ovis aries [3]", "value": ">=95%"}
    ]},
    {"smiles": "CCC(C)[C@H]1C(=O)O[C@H](C)C(=O)N(C)[C@@H](C)C(=O)O[C@H](C)C(=O)N(C)[C@@H](C(C)CC)C(=O)O[C@H](C)C(=O)N1C", "note": "(stereo partly specified)", "values": [
      {"measurement": "logD", "setting": "[2]", "value": 3.26},
      {"measurement": "Egg reduction", "setting": "Ovis aries [4]", "value": ">=95%"}
    ]},
    {"smiles": "CCCC[C@H]1OC(=O)[C@H](C(C)CC)N(C)C(=O)[C@@H](C)OC(=O)[C@H](C(C)CC)N(C)C(=O)[C@@H](C)OC(=O)[C@H](C(C)CC)N(C)C1=O", "note": "(stereo partly specified)", "values": [
      {"measurement": "logD", "setting": "[2]", "value": 5.14},
      {"measurement": "Egg reduction", "setting": "Ovis aries [5]", "value": ">=95%"}
    ]},
    {"smiles": "CC[C@H](C)[C@H]1C(=O)O[C@H](C)C(=O)N(C)[C@@H]([C@@H](C)CC)C(=O)O[C@H](C)C(=O)N(C)[C@@H](C)C(=O)OC(C)C(=O)N1C", "note": "(single isomer, unassigned)", "values": [
      {"measurement": "logD", "setting": "[2]", "value": 3.1},
      {"measurement": "Egg reduction", "setting": "Ovis aries [5]", "value": ">=95%"}
    ]},
    {"smiles": "CCC(C)[C@H]1C(=O)O[C@H](C)C(=O)N(C)[C@@H](C(C)CC)C(=O)O[C@H](C)C(=O)N(C)[C@@H](C(C)CC)C(=O)O[C@H](C)C(=O)N1C", "note": "(stereo partly specified)", "values": [
      {"measurement": "logD", "setting": "[2]", "value": 4.2},
      {"measurement": "Egg reduction", "setting": "Ovis aries [1]", "value": ">=95%"}
    ]}
  ]
}
